Reference: PMC9065877, “Safety, tolerability and pharmacokinetics of the oligomer modulator anle138b with exposure levels sufficient for therapeutic efficacy in a murine Parkinson model: A randomised, double-blind, placebo-controlled phase 1a trial” (EBioMedicine, 2022)

Tests used:
[1] = Blood levels of anle138b after chronic dosing (14 days) in food pellets; type: in vivo; set-up: dose or concentration left out as unconfirmed; settings: mouse, oral, doses of ≥11·, read-out: AUC0-24 exposure
Method: Based on the analysis of blood levels of anle138b after chronic dosing (14 days) using the same formulation (anle138b in food pellets), doses of ≥11·1 mg/kg/day correspond to an AUC0-24 exposure of ≥ 300 ng*h/ml.

[2] = Safety and tolerability (adverse events, laboratory, vital signs, ECG) in phase 1a trial in healthy subjects; type: in vivo, human
Method: The primary objective was to assess the safety and tolerability of single (SAD) and multiple (MAD) ascending doses of anle138b to healthy subjects in the fasted state and to assess the safety and tolerability of single doses of anle138b in both the fasted and fed state (FES). To this end, adverse events (AEs), clinical laboratory tests, vital signs, electrocardiograms (ECGs), QT interval corrected for heart rate using Fridericia's formula (QTcF), and physical examination findings were recorded. Participants were instructed to report all potential AEs immediately to the on-site personnel and were assessed by a physician before each dose of study drug. In addition, a physical examination of the relevant body system was performed in the event that a subject reports any new symptoms or AEs. AEs were defined following standard criteria, which are described in the protocol. The detailed parameters and sampling schedule regarding haematology, clinical chemistry, ECG, blood pressure, heart rate and PK are provided in the supplement (supplement 3). Any clinically significant abnormality in these assessments, including changes from baseline, were needed to be reported as an AE.
AEs and medications were coded using the Medical Dictionary for Regulatory Activities (MedDRA) (v22·1). An independent coding review was performed within the Data Sciences department. Clinical chemistry and haematology data (and other safety laboratory data) were collected by a central laboratory (The Doctors Laboratory) and transferred electronically to Quotient Sciences. The list of parameters is provided in supplement 2. All demographic details and sample dates were cross-referenced with the corresponding data on the study database. Data was monitored by an external entity (Wirral Clinical Consultancy Ltd, Heswall, UK). Monitoring included the conduct of a site initiation visit, interim monitoring visits and a close-out visit. The database was closed after all queries had been resolved.
The study was exploratory and no formal sample size calculation was made. Based on experience from previous studies of similar design, eight subjects per cohort were enrolled for parts 1 (SAD) and 2 (MAD) and a total of twelve subjects for part 3 (FES). Populations and analysis sets were determined for safety and PK data after database lock using the criteria defined in the reporting and analysis plan. The safety population and safety analysis set for SAD and MAD were defined after database lock but prior to study unblinding. Statistical analysis and production of summary tables, figures and listings for all safety data (AEs, vital signs, ECGs and safety laboratory assessments) including changes from baseline as required in this study were performed using the statistical package SAS (v9·4). Additional statistics was provided for PK-related data including coefficient of variation (CV%), geometric mean, geometric CV%, and the number n of subjects that were included in the natural logarithmic transformation). In SAD and MAD, dose proportionality was assessed. Formal statistical analysis was performed on the log-transformed PK parameters AUC(0-last), AUC(0-inf), and Cmax for SAD (day 1), and AUC(0-tau) and Cmax for MAD (day 1 and day 7) to assess dose proportionality using the following power model: loge (AUC or Cmax) = µ + βx loge (dose). The estimate obtained for β is a measure of dose proportionality. The estimate of β together with its 90% confidence interval (CI) (βl, βu) was used to quantify the degree of non-proportionality. In MAD, formal statistical analysis was performed on the PK parameters AUC(0-tau) and Cmax to assess dose accumulation. Log-transformed AUC(0-tau) and Cmax was subjected to a mixed-effects model with treatment (dose level), day (day 1 or 7) and treatment-by-day interaction as fixed effects and subject as a random effect. […]

[3] = Food effect cohort, anle138b 150 mg fed and fasted, N=12
[4] = MAD cohorts, anle138b 100-300 mg QD 7 days, N=18
[5] = SAD cohorts, anle138b 50-300 mg single dose, N=24

With `Brc1cccc(-c2cc(-c3ccc4c(c3)OCO4)n[nH]2)c1` [anle138b, 3-(1,3-benzodioxol-5-yl)-5-(3-bromophenyl)-1H-pyrazole] the AUC(0-t) [1] was no less than 300 ng·h/mL, the “Dose dependency of AE reporting” value ([2]; 50 to 300 mg) was “no dose dependency” and the “Adverse events by attribution to study treatment: Definite, number of events” value (“Adverse events … Definite, number of events” below) ([2]; Food effect cohort, N=12) was 0. The “Adverse events by attribution to study treatment: Not related, number of events (%)” value ([2]; Food effect cohort, N=12) was 6 (100), the “Adverse events by attribution to study treatment: Possible, number of events (%)” value (“Adverse events … Possible, number of events (%)” for short) ([2]; Food effect cohort, N=12) was 0 and the “Adverse events by attribution to study treatment: Probable, number of events” value (from here on “Adverse events … Probable, number of events”) ([2]; Food effect cohort, N=12) was 0. For the same compound, the “Adverse events by grade: Mild, number of events (%)” value (from here on “Adverse events by grade: Mild … (%)”) ([2]; Food effect cohort, N=12) was 6 (100), the “Adverse events by grade: Moderate, number of events (%)” value ([2]; Food effect cohort, N=12) was 0 and the “Adverse events by outcome: Recovered, number of events (%)” value (“Adverse events by outcome … (%)” below) ([2]; Food effect cohort, N=12) was 6 (100). The “Eye disorders (ocular hyperaemia, vision blurred): number of events [patients affected %]” value (“Eye disorders … [patients affected %]” for short) ([2]; Food effect cohort, N=12) was 0, the “Gastrointestinal disorders (diarrhea, nausea): number of events [patients affected %]” value ([2]; Food effect cohort, N=12) was 0 and the “General disorders and administration site conditions (Chest discomfort, fatigue, medical device site reaction): number of events [patients affected %]” value ([2]; Food effect cohort, N=12) was 1 [8·3]. The “Infections and infestations (Nasopharyngitis, rhinitis): number of events [patients affected %]” value ([2]; Food effect cohort, N=12) was 0, the “Injury, poisoning and procedural complications (procedural dizziness): number of events [patients affected %]” value (from here on “Injury … [patients affected %]”) ([2]; Food effect cohort, N=12) was 2 [16·7] and the “Musculosceletal and connective tissue disorders (Back pain): number of events [patients affected %]” value ([2]; Food effect cohort, N=12) was 0. For the same compound, the “Nervous system disorders (headache, paraestesia): number of events [patients affected %]” value (“Nervous system disorders … [patients affected %]” for short) ([2]; Food effect cohort, N=12) was 3 [25], the “Psychiatric disorders (abnormal dreams): number of events [patients affected %]” value (“Psychiatric disorders … [patients affected %]” for short) ([2]; Food effect cohort, N=12) was 0 and the “Number of patients with adverse event(s) [%]” value [2, 3] was 5 [41·7]. For the same compound, the “Number of patients with no adverse event [%]” value [2, 3] was 7 [58·3], the “Adverse events … Definite, number of events” value ([2]; MAD cohorts, N=18) was 0 and the “Adverse events by attribution to study treatment: Not related, number of events (%)” value ([2]; MAD cohorts, N=18) was 9 (90). The “Adverse events … Possible, number of events (%)” value ([2]; MAD cohorts, N=18) was 1 (10), the “Adverse events … Probable, number of events” value ([2]; MAD cohorts, N=18) was 0 and the “Adverse events by grade: Mild … (%)” value ([2]; MAD cohorts, N=18) was 9 (90). For the same compound, the “Adverse events by grade: Moderate, number of events (%)” value ([2]; MAD cohorts, N=18) was 1 (10), the “Adverse events by outcome … (%)” value ([2]; MAD cohorts, N=18) was 10 (100) and the “Eye disorders … [patients affected %]” value ([2]; MAD cohorts, N=18) was 1 [5·6]. For the same compound, the “Gastrointestinal disorders (diarrhea, nausea): number of events [patients affected %]” value ([2]; MAD cohorts, N=18) was 1 [5·6], the “General disorders and administration site conditions (Chest discomfort, fatigue, medical device site reaction): number of events [patients affected %]” value ([2]; MAD cohorts, N=18) was 1 [5·6] and the “Infections and infestations (Nasopharyngitis, rhinitis): number of events [patients affected %]” value ([2]; MAD cohorts, N=18) was 1 [5·6]. The “Injury … [patients affected %]” value ([2]; MAD cohorts, N=18) was 0, the “Musculosceletal and connective tissue disorders (Back pain): number of events [patients affected %]” value ([2]; MAD cohorts, N=18) was 2 [11·1] and the “Nervous system disorders … [patients affected %]” value ([2]; MAD cohorts, N=18) was 4 [16·7]. The “Psychiatric disorders … [patients affected %]” value ([2]; MAD cohorts, N=18) was 0, the “Number of patients with adverse event(s) [%]” value [2, 4] was 6 [33·3] and the “Number of patients with no adverse event [%]” value [2, 4] was 12 [66·7]. The “Moderate AE” value ([2]; MAD part, 100 mg anle138b) was “an episode of back pain”, the “AE considered possibly related to the study medication” value ([2]; MAD part, 200 mg anle138b, assessed prior to unblinding) was “one event of headache” and the “Adverse events … Definite, number of events” value ([2]; SAD cohorts, N=24) was 0. For the same compound, the “Adverse events by attribution to study treatment: Not related, number of events (%)” value ([2]; SAD cohorts, N=24) was 5 (100), the “Adverse events … Possible, number of events (%)” value ([2]; SAD cohorts, N=24) was 0 and the “Adverse events … Probable, number of events” value ([2]; SAD cohorts, N=24) was 0. For the same compound, the “Adverse events by grade: Mild … (%)” value ([2]; SAD cohorts, N=24) was 5 (100), the “Adverse events by grade: Moderate, number of events (%)” value ([2]; SAD cohorts, N=24) was 0 and the “Adverse events by outcome … (%)” value ([2]; SAD cohorts, N=24) was 5 (100). For the same compound, the “Eye disorders … [patients affected %]” value ([2]; SAD cohorts, N=24) was 1 [4·2], the “Gastrointestinal disorders (diarrhea, nausea): number of events [patients affected %]” value ([2]; SAD cohorts, N=24) was 0 and the “General disorders and administration site conditions (Chest discomfort, fatigue, medical device site reaction): number of events [patients affected %]” value ([2]; SAD cohorts, N=24) was 0. For the same compound, the “Infections and infestations (Nasopharyngitis, rhinitis): number of events [patients affected %]” value ([2]; SAD cohorts, N=24) was 1 [4·2], the “Injury … [patients affected %]” value ([2]; SAD cohorts, N=24) was 0 and the “Musculosceletal and connective tissue disorders (Back pain): number of events [patients affected %]” value ([2]; SAD cohorts, N=24) was 1 [4·2]. For the same compound, the “Nervous system disorders … [patients affected %]” value ([2]; SAD cohorts, N=24) was 2 [8·3], the “Psychiatric disorders … [patients affected %]” value ([2]; SAD cohorts, N=24) was 0 and the “Number of patients with adverse event(s) [%]” value [2, 5] was 4 [16·7]. The “Number of patients with no adverse event [%]” value [2, 5] was 20 [83·3], the “Tolerability and compound-related side effects” value ([2]; all tested doses (up to 300 mg)) was “excellent tolerability and no compound-related side effects” and the “Changes in safety assessments (laboratory values, vital signs, physical examinations, ECG)” value ([2]; any subject included in the trial) was “no clinically significant individual changes from baseline or notable trends”.
